One data set relates to Newcastle disease virus. The settings on record: Koji Aigami et al., J. of Medicinal Chemistry, vol. 19, 536 (1976); cited from earlier work.
A further data set relates to MDCK cells. The conditions noted are these: 3 days, microscopic CTE.
For data set [1], the system named is Influenza A/PR/3/34 (HO, Nl) strain. Kind of data set: microbe, parasite or virus in culture. In kind it is cell-based. The conditions noted are these: for HA-titer / MIC: MDCK cells; for HA-titer: 34° C., 3 days, control 256; for MIC: 72 h, Influenza virus; for inhibitory effects on Influenza virus growth: comparison of the two compounds, in words.
The nature of the next data set: in vitro. The settings on record: dog, mdck.

Counter-ions that a name gives are not always drawn. Like-named read-outs stand apart in the source and are kept apart here.

`NC12CCCC3CC(CCC31)C2` (stereo not shown) [3-amino-4-homoisotwistane hydrochloride]: the “antiviral activity against Newcastle disease virus” value with Newcastle disease virus was “have antiviral activity against Newcastle disease virus”.

In the case of `CN(C)C12CCCC3CC(CCC31)C2` (stereo not shown), the Cytotoxicity result was “(±) (CTE is less than 10% of cells.)” with MDCK cells (25.0 mcg/ml); “(+) (CTE is more than 10% and less than 50% of cells.)” in the data set with MDCK cells (50.0 mcg/ml). Further, the values for the HA-titer in data set [1] (12.5 mcg/ml), in data set [1] (25.0 mcg/ml) and in data set [1] (50.0 mcg/ml) were 64, 64 and below 4, respectively. The compound further returned an MIC in data set [1] below 12.5 µg/mL. Besides, the “inhibitory effects on Influenza virus growth” value in data set [1] is listed as “equivalent inhibitory effects on Influenza virus growth”. In addition, the MNTC at 72 h in the data set “in vitro” is 25 µg/mL.

Take `NC12CC3CC(CC(C3)C1)C2` [Amantadine hydrochloride]: the Cytotoxicity entry in the data set with MDCK cells (12.5 mcg/ml) was “(±) (CTE is less than 10% of cells.)”; with MDCK cells (25.0 mcg/ml) it was “(+) (CTE is more than 10% and less than 50% of cells.)”. Also, the results for the HA-titer in data set [1] (12.5 mcg/ml) and in data set [1] (25.0 mcg/ml) were 64 and below 4, respectively. Further, the MIC in data set [1] was below 12.5 µg/mL. Besides, the “inhibitory effects on Influenza virus growth” value in data set [1] is “equivalent inhibitory effects on Influenza virus growth”. For the same compound, in the data set “in vitro”, the MNTC at 72 h amounted to 12.5 µg/mL.

These data come from patent US4283422A (priority 1979, dated 1981).
